# Results reported in patent US4725597A, “Bis(piperazinyl or homopiperazinyl)alkanes” (Boehringer Ingelheim Ltd., priority 1984, dated 1988).
# Counter-ions that a name gives are not always drawn.
# Columns and labels:
# Assay type in all cases: cell-based
# [1] = system: human leukocytes (basophils); assay: Inhibition of histamine release from human leukocytes (basophils), Procedure A; conditions: Leukocyte, 1 h, rabbit anti-human IgE, 37° C., 60 minutes, (d) No response detected at highest dose indicated, read-out: In Vitro Inhibition of Histamine Release IC50, Procedure A
# Method: A. Procedure for Determining Inhibition of Histamine Release from Human Leukocytes (Basophils) 1. Separation of Leukocytes: A modification of the method of L. Lichtenstein and A. Osler, J. Exp. Med. 120, 507 (1964) is used. Heparinized human blood (80-100 ml) is mixed with 20 ml of saline (0.2%) containing 0.6 gm of dextrose and 1.2 gm dextran in propylene centrifuge tubes. The mixture is kept at ambient temperature for 60-90 minutes to allow the separation of erythrocytes from the platelet-leukocyte-rich supernate. The supernate is removed and centrifuged for 8 minutes at 110×g in cold. The leukocyte pellet is washed twice with Tris buffer and finally suspended in 150-180 ml Tris-ACM buffer at 1-2×10^6 cells/ml. 2. Reaction Mixture: The reaction is carried out in 12×75 mm plastic tubes at a total volume of […]. The reaction medium includes 0.05 ml rabbit anti-human IgE (the antigen), 0.2 ml of the test compound in water at concentrations ranging from 10-100 μM, and 0.1 ml of the leukocyte suspension. The reaction mixture is incubated in a 37° C. shaking water bath for 60 minutes. Upon completion of the reaction, the tubes are centrifuged and the supernatants collected. The protein is removed from the supernatants by precipitation with 0.2 ml of 8% perchloric acid. 3. Histamine Assay: Histamine release is measured by the automated fluorometric method of W. Siraganian and W. Hook in Chapter 102 of the Manual of Clinical Immunology, 2nd Edition, edited by R. Rose and H. Friedman, published by the American Society for Microbiology, Washington, D.C. 1980. Percent inhibition is calculated as follows: [formula] The concentration which causes a 50 percent inhibition (IC50) of histamine release is interpolated from a plot of percent inhibition versus logarithm of drug concentration.
# [2] = system: rat peritoneal mast cells; assay: Inhibition of histamine release from rat peritoneal mast cells, Procedure B; conditions: Mast cell, 1 h, sheep anti-rat IgE or ovalbumin, 37° C., 60 minutes, (d) No response detected at highest dose indicated, read-out: In Vitro Inhibition of Histamine Release IC50, Procedure B
# Method: B. Procedure for Determining Inhibition of Histamine Release from Rat Peritoneal Mast Cells 1. Harvest of Peritoneal Mast Cells: After the rats are sacrificed with ether, 20 ml of Minimum Essential Medium (MEM) containing 20 units/ml heparin is injected into the peritoneum. The abdomen is massaged for one minute and the lavage fluid collected. The peritoneal cells are centrifuged at 1800 rpm for 8 minutes in cold. After two washes with Tris A buffer, the cells are resuspended in Tris ACM buffer at 2-4×10^6 cells/ml. 2. Reaction Mixture: The reaction is carried out in 12×75 mm plastic tubes at a total volume of 1.25 ml. The reaction mixture includes 0.5 ml (10-1000 μg) sheep anti-rat IgE or ovalbumin, 0.2 ml of the test compound in water at concentrations ranging from 10-1000 μM, […] phosphatidylserine solution (20-60 μg to each tube), and 0.5 ml of cell suspension. The reaction mixture is incubated in a 37° C. shaking water bath for 60 minutes. Upon completion of the reaction, the tubes are centrifuged and the supernatants collected. The protein is removed from the supernatants by precipitation with 0.2 ml of 8% perchloric acid. 3. Histamine Assay: Histamine release is measured by the automated fluorometric method of Siraganian, supra. The concentration which causes a 50% inhibition (IC50) of histamine release is computed as in Part A.
# guinea pig basophils = assay: Inhibition of histamine release from guinea pig basophils, Procedure C; conditions: Cavia porcellus, 1 h, ovalbumin-sensitized, 37° C., 60 minutes, read-out: In Vitro Inhibition of Histamine Release IC50, Procedure C
# Method: C. Procedure for Determining Inhibition of Histamine Release from Guinea Pig Basophils 1. In Vivo Sensitization: Male Hartley guinea pigs (200-300 gms) are immunized on day 0 with two 0.05 ml intradermal injections of 200 μg ovalbumin. Sensitized basophils are available between days 13-25 post-sensitization. This mode of sensitization favors IgE response. 2. Separation of Leukocytes: The method of Lett-Brown et al., Int. Arch. Allergy, Appl. Immun. 64, 241 (1981) is used. Animals are anesthetized with ether and are bled via cardiac puncture with plastic syringes containing sufficient EDTA to provide a final concentration of 10 mM. One part of 3% gelatin in saline at 37° C. is mixed with two parts of blood in a 16×150 mm tube. The cells are allowed to sediment at a 30° angle for 45 minutes in a 37° C. water bath. The leukocyte-rich plasma is collected and centrifuged at 150×g for 30 minutes at room temperature. The pelleted cells are washed in Hepes-buffered saline (HG) containing 4 mM EDTA and resuspended in Hepes-buffered saline containing Mg^++ and Ca^++ (HGCM) at 4-5×10^6 cells/ml. 3. Reaction Mixture: The reaction is carried out in 12×75 mm plastic tubes and a total volume of 1.2 ml which includes 0.5 ml of antigen, 0.2 ml of drug solution at concentrations ranging from 10-1000 μM and 0.5 ml of prewashed cell suspension. The reaction mixture is incubated in a 37° C. shaking water bath for 60 minutes. Upon completion of the reaction, the tubes are centrifuged and the supernatants collected. The protein is removed from the supernatants by precipitation with 0.2 ml of 8% perchloric acid. 4. Histamine Assay: Histamine release is measured by the automated fluorometric method of Siraganian, supra. The concentration which causes a 50 percent inhibition of Histamine release is computed as in Part A.
Structure (SMILES),IC50 [1] [µM],IC50 [2] [µM],IC50 (guinea pig basophils) [µM]
"Clc1ccc(CN2CCN(CCCN3CCN(Cc4ccc(Cl)cc4)CC3)CC2)cc1 [Example 1, 1,3-Bis[4-(4-chlorobenzyl)-1-piperazinyl]propane tetrahydrochloride]",11,2,35
"OC(CN1CCN(Cc2ccc(Cl)cc2)CC1)CN1CCN(Cc2ccc(Cl)cc2)CC1 [Example 2, 1,3-Bis[4-(4-chlorobenzyl)-1-piperazinyl]-2-hydroxypropane]",12,80,23
"Clc1ccc(CN2CCN(CCCCN3CCN(Cc4ccc(Cl)cc4)CC3)CC2)cc1 [Example 3, 1,4-Bis[4-(4-chlorobenzyl)-1-piperazinyl]butane hemihydrate]",24,–,–
"c1ccc(CN2CCN(CCCN3CCN(Cc4ccccc4)CC3)CC2)cc1 [Example 4, 1,3-Bis(4-benzyl-1-piperazinyl)propane tetrahydrochloride]",53,–,–
"Fc1ccc(CN2CCN(CCCN3CCN(Cc4ccc(F)cc4)CC3)CC2)cc1 [Example 5, 1,3-Bis[4-(4-fluorobenzyl)-1-piperazinyl]propane tetrahydrochloride]",45,–,760
"O=C(CCN1CCN(Cc2ccc(Cl)cc2)CC1)N1CCN(Cc2ccc(Cl)cc2)CC1 [Example 6, 1,3-Bis[4-(4-chloro-benzyl)-1-piperazinyl]-1-oxo-propane trihydrochloride]",12,–,–
"CC(CCN1CCN(Cc2ccc(Cl)cc2)CC1)N1CCN(Cc2ccc(Cl)cc2)CC1 (stereo not shown) [Example 7, 1,3-Bis[4-(4-chlorobenzyl)-1-piperazinyl]-1-methylpropane tetrahydrochloride hemihydrate]",4,–,–
"Clc1ccc(C(c2ccccc2)N2CCN(CCCN3CCN(C(c4ccccc4)c4ccc(Cl)cc4)CC3)CC2)cc1 (stereo not shown) [Example 8, 1,3-Bis[4-(4-chlorobenzhydryl)-1-piperazinyl]-propane dihydrochloride dihydrate]",> 1000,> 100,–
"O=C(CN1CCN(CCCN2CCN(Cc3ccc(Cl)cc3)CC2)CC1)c1ccccc1 [Example 10, 1-[4-(4-Chlorobenzyl)-1-piperazinyl]-3-(4-phenacyl-1-piperazinyl)propane tetrahydrochloride monohydrate]",3,–,–
"OC(CN1CCN(CCCN2CCN(Cc3ccc(Cl)cc3)CC2)CC1)c1ccccc1 (stereo not shown) [Example 11, 1-[4-(4-Chlorobenzyl)-1-piperazinyl]-3-[4-(2-hydroxy-2-phenylethyl)-1-piperazinyl]propane tetrahydrochloride]",20,–,–
"O=C(CN1CCN(CCCN2CCN(CC(=O)c3ccccc3)CC2)CC1)c1ccccc1 [Example 12, 1,3-Bis(4-phenacyl-1-piperazinyl)propane tetrahydrochloride monohydrate]",800,–,–
"OC(CN1CCN(CCCN2CCN(CC(O)c3ccccc3)CC2)CC1)c1ccccc1 (stereo not shown) [Example 13, 1,3-Bis[4-(2-phenyl-2-hydroxyethyl)-1-piperazinyl]propane tetrahydrochloride]",~1000,–,–
"c1ccc(CCN2CCN(CCCN3CCN(CCc4ccccc4)CC3)CC2)cc1 [Example 14, 1,3-Bis(4-phenethyl-1-piperazinyl)propane dihydrochloride dihydrate]",28,–,–
"O=C(CC(=O)N1CCN(Cc2ccc(Cl)cc2)CC1)N1CCN(Cc2ccc(Cl)cc2)CC1 [Example 15, 1,3-Bis[4-(4-chlorobenzyl)-1-piperazinyl]-1,3-dioxopropane dihydrochloride monohydrate]",17,10,49
"CC(c1ccccc1)N1CCN(CCCN2CCN(C(C)c3ccccc3)CC2)CC1 (stereo not shown) [Example 17, 1,3-Bis[4-(1-phenylethyl)-1-piperazinyl]-propane tetrahydrochloride]",80,–,–
"Clc1ccc(CN2CCN(CCCN3CCN(Cc4ccc(Cl)c(Cl)c4)CC3)CC2)cc1Cl [Example 20, 1,3-Bis[4-(3,4-dichlorobenzyl)-1-piperazinyl]-propane tetrahydrochloride]",3,–,–
"Clc1ccccc1CN1CCN(CCCN2CCN(Cc3ccccc3Cl)CC2)CC1 [Example 21, 1,3-Bis[4-(2-chlorobenzyl)-1-piperazinyl]propane tetrahydrochloride]",14,–,–
"Cc1ccc(CN2CCN(CCCN3CCN(Cc4ccc(C)cc4)CC3)CC2)cc1 [Example 22, 1,3-Bis[4-(4-methylbenzyl)-1-piperazinyl]-propane tetrahydrochloride]",20,–,–
"Clc1cccc(CN2CCN(CCCN3CCN(Cc4cccc(Cl)c4)CC3)CC2)c1 [Example 23, 1,3-Bis[4-(3-chlorobenzyl)-1-piperazinyl]propane dihydrochloride monohydrate]",14,–,–
"FC(F)(F)c1cc(CN2CCN(CCCN3CCN(Cc4ccc(Cl)c(C(F)(F)F)c4)CC3)CC2)ccc1Cl [Example 25, 1,3-Bis[4-(4-chloro-3-trifluoromethylbenzyl)-1-piperazinyl]propane tetrahydrochloride]",6,–,–
"Oc1ccc(CN2CCN(CCCN3CCN(Cc4ccc(O)cc4)CC3)CC2)cc1 [Example 26, 1,3-Bis[4-(4-hydroxybenzyl)-1-piperazinyl]propane]",> 1000,–,–
"Brc1ccc(CN2CCN(CCCN3CCN(Cc4ccc(Br)cc4)CC3)CC2)cc1 [Example 27, 1,3-Bis[4-(4-bromobenzyl)-1-piperazinyl]propane tetrahydrochloride]",3,–,–
"Clc1ccc(CCCCN2CCN(CCCN3CCN(CCCCc4ccc(Cl)cc4)CC3)CC2)cc1 [Example 29, 1,3-Bis[4-(4-{4-chlorophenyl}butyl)-1-piperazinyl]propane tetrahydrochloride]",2,–,–
"CC(=O)Oc1ccc(CN2CCN(CCCN3CCN(Cc4ccc(OC(C)=O)cc4)CC3)CC2)cc1 [Example 30, 1,3-Bis[4-(4-acetoxybenzyl)-1-piperazinyl]propane]",> 1000,–,–
"CCCCOc1ccc(CN2CCN(CCCN3CCN(Cc4ccc(OCCCC)cc4)CC3)CC2)cc1 [Example 31, 1,3-Bis[4-(4-butoxybenzyl)-1-piperazinyl]propane tetrahydrochloride]",4,–,–
"CC1C(C)N(Cc2ccc(Cl)cc2)C(C)C(C)N1CCCN1C(C)C(C)N(Cc2ccc(Cl)cc2)C(C)C1C (stereo not shown) [Example 32, 1,3-bis[4-(4-chlorobenzyl)-2,3,5,6-tetramethyl-1-piperazinyl]propane tetrahydrochloride]",1000,–,–
